Bounds are passed on as bounds.

The assay concerns the target T1, HMG-CoA reductase (Homo sapiens, UniProt P04035).
T1 construct: endogenous in cells; host or cells: HepG2 (Korea Cell Line Bank)
T1 sequence (P04035 1-888): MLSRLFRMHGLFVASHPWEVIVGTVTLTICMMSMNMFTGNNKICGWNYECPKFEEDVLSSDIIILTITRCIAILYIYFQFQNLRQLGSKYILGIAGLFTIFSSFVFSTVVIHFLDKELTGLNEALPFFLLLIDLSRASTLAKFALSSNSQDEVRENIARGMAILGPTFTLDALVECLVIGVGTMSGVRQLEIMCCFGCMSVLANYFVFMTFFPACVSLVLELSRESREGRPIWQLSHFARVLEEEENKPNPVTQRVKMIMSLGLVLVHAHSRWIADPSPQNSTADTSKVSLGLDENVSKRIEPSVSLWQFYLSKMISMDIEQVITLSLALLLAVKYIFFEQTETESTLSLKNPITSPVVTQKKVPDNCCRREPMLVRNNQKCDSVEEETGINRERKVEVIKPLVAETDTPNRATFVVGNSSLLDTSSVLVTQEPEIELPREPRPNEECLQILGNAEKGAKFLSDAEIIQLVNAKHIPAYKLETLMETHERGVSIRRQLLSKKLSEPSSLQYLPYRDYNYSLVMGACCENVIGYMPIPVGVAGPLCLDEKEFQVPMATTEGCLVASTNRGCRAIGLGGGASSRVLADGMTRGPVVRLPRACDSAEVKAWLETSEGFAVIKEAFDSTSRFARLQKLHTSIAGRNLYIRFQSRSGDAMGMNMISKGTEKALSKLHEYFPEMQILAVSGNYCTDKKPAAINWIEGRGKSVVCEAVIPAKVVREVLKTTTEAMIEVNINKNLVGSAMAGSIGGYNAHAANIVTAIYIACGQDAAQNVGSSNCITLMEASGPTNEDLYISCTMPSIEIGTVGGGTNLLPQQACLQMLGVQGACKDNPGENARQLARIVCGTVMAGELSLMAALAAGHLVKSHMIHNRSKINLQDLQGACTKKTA
In words: HMG-CoA reductase (HMGCR) degradation in HepG2 cells by western blotting. Type of assay: cell-based. Particulars: treated for 18 hours, ratio of HMG-CoA reductase to GAPDH, read-out: DC50. An outline of the steps: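 HepG2 cells (passage P105–P110) treated 18 hours with compounds in 10-point three-fold dilutions from 3 μM. RIPA lysates (15 μg protein, BCA-quantified) run on SDS-PAGE and immunoblotted for HMGCR (1:500) with GAPDH (1:20000) as loading control, primary antibodies 16 hours at 4° C.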
Turning to `C[C@H]1C=C2C=C[C@H](C)[C@H](CC[C@@H]3C[C@@H](O)CC(=O)O3)[C@H]2[C@@H](OC(=O)NCCc2ccc(CC(=O)Nc3cccc4c3C(=O)N(C3CCC(=O)NC3=O)C4=O)cc2)C1` (stereo partly drawn) [Compound 147, (1S,3R,7S,8S,8aR)-8-(2-((2R,4R)-4-hydroxy-6-oxotetrahydro-2H-pyran-2-yl)ethyl)-3,7-dimethyl-1,2,3,7,8,8a-hexahydronaphthalen-1-yl (4-(2-((2-(2,6-dioxopiperidin-3-yl)-1,3-dioxoisoindolin-4-yl)amino)-2-oxoethyl)phenethyl)carbamate], the DC50 was less than 50 nM. Consider `C[C@H]1C=C2C=C[C@H](C)[C@H](CC[C@@H]3C[C@@H](O)CC(=O)O3)[C@H]2[C@@H](OC(=O)NCCCCOCCCCNc2cccc3c2C(=O)N(C2CCC(=O)NC2=O)C3=O)C1` (stereo partly drawn) [Compound 89, (1S,3R,7S,8S,8aR)-8-(2-((2R,4R)-4-hydroxy-6-oxotetrahydro-2H-pyran-2-yl)ethyl)-3,7-dimethyl-1,2,3,7,8,8a-hexahydronaphthalen-1-yl (4-(4-((2-(2,6-dioxopiperidin-3-yl)-1,3-dioxoisoindolin-4-yl)amino)butoxy)butyl)carbamate], for which the half-maximal degradation concentration (DC50) was less than 50 nM. Consider `C[C@H]1C=C2C=C[C@H](C)[C@H](CC[C@@H]3C[C@@H](O)CC(=O)O3)[C@H]2[C@@H](OC(=O)NCCOCCOCCNc2cccc3c2C(=O)N(C2CCC(=O)NC2=O)C3=O)C1` (stereo partly drawn) [Compound 40, (1S,3R,7S,8S,8aR)-8-(2-((2R,4R)-4-hydroxy-6-oxotetrahydro-2H-pyran-2-yl)ethyl)-3,7-dimethyl-1,2,3,7,8,8a-hexahydronaphthalen-1-yl (2-(2-(2-((2-(2,6-dioxopiperidin-3-yl)-1,3-dioxoisoindolin-4-yl)amino)ethoxy)ethoxy)ethyl)carbamate], for which the DC50 was less than 50 nM. Under `C[C@H]1C=C2C=C[C@H](C)[C@H](CC[C@@H]3C[C@@H](O)CC(=O)O3)[C@H]2[C@@H](OC(=O)NCCCOCCOCCOCCCNc2cccc3c2C(=O)N(C2CCC(=O)NC2=O)C3=O)C1` (stereo partly drawn) [Compound 157, (1S,3R,7S,8S,8aR)-8-(2-((2R,4R)-4-hydroxy-6-oxotetrahydro-2H-pyran-2-yl)ethyl)-3,7-dimethyl-1,2,3,7,8,8a-hexahydronaphthalen-1-yl (3-(2-(2-(3-((2-(2,6-dioxopiperidin-3-yl)-1,3-dioxoisoindolin-4-yl)amino)propoxy)ethoxy)ethoxy)propyl)carbamate] stands less than 50 nM; under `C[C@H]1C=C2C=C[C@H](C)[C@H](CC[C@@H]3C[C@@H](O[Si](C)(C)C(C)(C)C)CC(=O)O3)[C@H]2[C@@H](OC(=O)NCCOCCOCCOCCNc2ccccc2)C1` [Compound 45, (1S,3R,7S,8S,8aR)-8-(2-((2R,4R)-4-((tert-butyldimethylsilyl)oxy)-6-oxotetrahydro-2H-pyran-2-yl)ethyl)-3,7-dimethyl-1,2,3,7,8,8a-hexahydronaphthalen-1-yl (2-(2-(2-(2-(phenylamino)ethoxy)ethoxy)ethoxy)ethyl)carbamate], greater than 500 nM. Regarding `C[C@H]1C=C2C=C[C@H](C)[C@H](CC[C@@H]3C[C@@H](O[Si](C)(C)C(C)(C)C)CC(=O)O3)[C@H]2[C@@H](OC(=O)NCc2cccc(CNC(=O)COc3cccc4c3C(=O)N(C3CCC(=O)NC3=O)C4=O)c2)C1` (stereo partly drawn) [Compound 78, (1S,3R,7S,8S,8aR)-8-(2-((2R,4R)-4-((tert-butyldimethylsilyl)oxy)-6-oxotetrahydro-2H-pyran-2-yl)ethyl)-3,7-dimethyl-1,2,3,7,8,8a-hexahydronaphthalen-1-yl (3-((2-((2-(2,6-dioxopiperidin-3-yl)-1,3-dioxoisoindolin-4-yl)oxy)acetamido)methyl)benzyl)carbamate], the DC50 was less than 50 nM.

Regarding `C[C@H]1C=C2C=C[C@H](C)[C@H](CC[C@@H]3C[C@@H](O)CC(=O)O3)[C@H]2[C@@H](OC(=O)NCCCOCCCOCCCNc2cccc3c2C(=O)N(C2CCC(=O)NC2=O)C3=O)C1` (stereo partly drawn) [Compound 95, (1S,3R,7S,8S,8aR)-8-(2-((2R,4R)-4-hydroxy-6-oxotetrahydro-2H-pyran-2-yl)ethyl)-3,7-dimethyl-1,2,3,7,8,8a-hexahydronaphthalen-1-yl (3-(3-(3-((2-(2,6-dioxopiperidin-3-yl)-1,3-dioxoisoindolin-4-yl)amino)propoxy)propoxy)propyl)carbamate], the 50% degradation concentration (DC50) was in the range of 50 to 500 nM. Under `C[C@H]1C=C2C=C[C@H](C)[C@H](CC[C@@H]3C[C@@H](O[Si](C)(C)C(C)(C)C)CC(=O)O3)[C@H]2[C@@H](OC(=O)NCCCCCCNc2cccc3c2C(=O)N(C2CCC(=O)NC2=O)C3=O)C1` (stereo partly drawn) [Compound 52, (1S,3R,7S,8S,8aR)-8-(2-((2R,4R)-4-((tert-butyldimethylsilyl)oxy)-6-oxotetrahydro-2H-pyran-2-yl)ethyl)-3,7-dimethyl-1,2,3,7,8,8a-hexahydronaphthalen-1-yl (6-((2-(2,6-dioxopiperidin-3-yl)-1,3-dioxoisoindolin-4-yl)amino)hexyl)carbamate] stands less than 50 nM; under `C[C@H]1C=C2C=C[C@H](C)[C@H](CC[C@@H]3C[C@@H](O)CC(=O)O3)[C@H]2[C@@H](OC(=O)NCCCCCCCCCNc2cccc3c2C(=O)N(C2CCC(=O)NC2=O)C3=O)C1` (stereo partly drawn) [Compound 62, (1S,3R,7S,8S,8aR)-8-(2-((2R,4R)-4-hydroxy-6-oxotetrahydro-2H-pyran-2-yl)ethyl)-3,7-dimethyl-1,2,3,7,8,8a-hexahydronaphthalen-1-yl (9-((2-(2,6-dioxopiperidin-3-yl)-1,3-dioxoisoindolin-4-yl)amino)nonyl)carbamate], 50 to 500 nM; under `C[C@H]1C=C2C=C[C@H](C)[C@H](CC[C@@H]3C[C@@H](O[Si](C)(C)C(C)(C)C)CC(=O)O3)[C@H]2[C@@H](OC(=O)NCCOCCOCCNc2cccc3c2C(=O)N(C2CCC(=O)NC2=O)C3=O)C1` (stereo partly drawn) [Compound 46, (1S,3R,7S,8S,8aR)-8-(2-((2R,4R)-4-((tert-butyldimethylsilyl)oxy)-6-oxotetrahydro-2H-pyran-2-yl)ethyl)-3,7-dimethyl-1,2,3,7,8,8a-hexahydronaphthalen-1-yl (2-(2-(2-((2-(2,6-dioxopiperidin-3-yl)-1,3-dioxoisoindolin-4-yl)amino)ethoxy)ethoxy)ethyl)carbamate], less than 50 nM. Under `C[C@H]1C=C2C=C[C@H](C)[C@H](CC[C@@H]3C[C@@H](O[Si](C)(C)C(C)(C)C)CC(=O)O3)[C@H]2[C@@H](OC(=O)NCCCCCCCCNc2cccc3c2C(=O)N(C2CCC(=O)NC2=O)C3=O)C1` (stereo partly drawn) [Compound 54, (1S,3R,7S,8S,8aR)-8-(2-((2R,4R)-4-((tert-butyldimethylsilyl)oxy)-6-oxotetrahydro-2H-pyran-2-yl)ethyl)-3,7-dimethyl-1,2,3,7,8,8a-hexahydronaphthalen-1-yl (8-((2-(2,6-dioxopiperidin-3-yl)-1,3-dioxoisoindolin-4-yl)amino)octyl)carbamate] stands less than 50 nM; under `C[C@H]1C=C2C=C[C@H](C)[C@H](CC[C@@H]3C[C@@H](O)CC(=O)O3)[C@H]2[C@@H](OC(=O)NCCCCCN2CCC(Nc3cccc4c3C(=O)N(C3CCC(=O)NC3=O)C4=O)CC2)C1` (stereo partly drawn) [Compound 126, (1S,3R,7S,8S,8aR)-8-(2-((2R,4R)-4-hydroxy-6-oxotetrahydro-2H-pyran-2-yl)ethyl)-3,7-dimethyl-1,2,3,7,8,8a-hexahydronaphthalen-1-yl (5-(4-((2-(2,6-dioxopiperidin-3-yl)-1,3-dioxoisoindolin-4-yl)amino)piperidin-1-yl)pentyl)carbamate], less than 50 nM. The value for `C[C@H]1C=C2C=C[C@H](C)[C@H](CC[C@@H]3C[C@@H](O)CC(=O)O3)[C@H]2[C@@H](OC(=O)C(C)(C)CCC(=O)NCCOCCOCCOCCNc2ccccc2)C1` [Compound 1, (1S,3R,7S,8S,8aR)-8-(2-((2R,4R)-4-hydroxy-6-oxotetrahydro-2H-pyran-2-yl)ethyl)-3,7-dimethyl-1,2,3,7,8,8a-hexahydronaphthalen-1-yl 16,16-dimethyl-13-oxo-1-(phenylamino)-3,6,9-trioxa-12-azaheptadecan-17-oate] was greater than 500 nM.

(Values after patent US12479840B2, “HMG-CoA reductase degradation inducing compound” (Uppthera, priority 2020, dated 2025).)
